As usually defined, the melting point is the temperature, or range, at which the solid turns liquid. Consider `CCOC(C)(OCC)C(=O)c1c[nH]c2ncc(-c3cc(OC)c(OC)c(OC)c3)nc12` [Example 72, 2,2-Diethoxy-1-[2-(3,4,5-trimethoxy-phenyl)-5H-pyrrolo[2,3-b]pyrazin-7-yl]-propan-1-one], for which the melting point lay in the range of 198.2 to 201 °C. The molecule `COc1cc(-c2cnc3[nH]cc(C(=O)C(=O)N(C)C)c3n2)cc(OC)c1OC` [Example 74, N,N-Dimethyl-2-oxo-2-[2-(3,4,5-trimethoxy-phenyl)-5H-pyrrolo[2,3-b]pyrazin-7-yl]-acetamide] registered a melting point of 227 to 228 °C. `CC(C)(C)C(=O)c1c[nH]c2ncc(-c3cccc(N4CCN(C(=O)CC#N)CC4)c3)nc12` [Example 90, 3-(4-{3-[7-(2,2-Dimethyl-propionyl)-5H-pyrrolo[2,3-b]pyrazin-2-yl]-phenyl}-piperazin-1-yl)-3-oxo-propionitrile] had a melting point of 240 to 242 °C. In the case of `CC(C)(C)C(=O)c1c[nH]c2ncc(-c3cc(N4CCCC4)cc(N4CCCC4)c3)nc12` [Example 97, 1-[2-(3,5-Di-pyrrolidin-1-yl-phenyl)-5H-pyrrolo[2,3-b]pyrazin-7-yl]-2,2-dimethyl-propan-1-one], the melting point lay in the range of 291 to 303 °C. As to `COc1ccc(-c2cnc3[nH]cc(C(=O)C(C)(C)C)c3n2)cc1` [Example 98, 1-[2-(4-Methoxy-phenyl)-5H-pyrrolo[2,3-b]pyrazin-7-yl]-2,2-dimethyl-propan-1-one], the melting point lay in the range of 207 to 208 °C. As for `COc1ccc(-c2cnc3[nH]cc(C(=O)C(C)(C)C)c3n2)cc1N1CCCC1` [Example 101, 1-[2-(4-Methoxy-3-pyrrolidin-1-yl-phenyl)-5H-pyrrolo[2,3-b]pyrazin-7-yl]-2,2-dimethyl-propan-1-one], the figure is 211 to 213 °C; as for `C[S+]([O-])c1ccc(-c2cnc3[nH]cc(C(=O)C(C)(C)C)c3n2)cc1N1CCCC1` (stereo not drawn) [Example 107, 1-[2-(4-Methanesulfinyl-3-pyrrolidin-1-yl-phenyl)-5H-pyrrolo[2,3-b]pyrazin-7-yl]-2,2-dimethyl-propan-1-one], 150 to 152 °C. The same measure for `CC(C)(C)C(=O)c1c[nH]c2ncc(-c3cccc(N4CCC(S(C)(=O)=O)C4)c3)nc12` (stereo not drawn) [Example 109, 1-{2-[3-(3-Methanesulfonyl-pyrrolidin-1-yl)-phenyl]-5H-pyrrolo[2,3-b]pyrazin-7-yl}-2,2-dimethyl-propan-1-one]: 223 to 225 °C. The same measure for `COC1CN(c2cccc(-c3cnc4[nH]cc(C(=O)C(C)(C)C)c4n3)c2)C1` [Example 111, 1-{2-[3-(3-Methoxy-azetidin-1-yl)-phenyl]-5H-pyrrolo[2,3-b]pyrazin-7-yl}-2,2-dimethyl-propan-1-one]: 196 to 198 °C; for `COc1cc(-c2cnc3[nH]cc(C(=O)CCC(C)OC)c3n2)cc(OC)c1OC` (stereo not drawn) [Example 129, 4-Methoxy-1-[2-(3,4,5-trimethoxy-phenyl)-5H-pyrrolo[2,3-b]pyrazin-7-yl]-pentan-1-one]: 150 to 151 °C; for `COc1cc(-c2cnc3[nH]cc(C(=O)C(C)(C)OC)c3n2)cc(OC)c1OC` [Example 131, 2-Methoxy-2-methyl-1-[2-(3,4,5-trimethoxy-phenyl)-5H-pyrrolo[2,3-b]pyrazin-7-yl]-propan-1-one]: 237.8 to 239.1 °C.

On to `COCC(=O)c1c[nH]c2ncc(-c3cc(OC)c(OC)c(OC)c3)nc12` [Example 132, 2-Methoxy-1-[2-(3,4,5-trimethoxy-phenyl)-5H-pyrrolo[2,3-b]pyrazin-7-yl]-ethanone], for which the melting point was in the range of 229 to 230 °C. Molecule `CCOc1cccc(-c2cnc3[nH]cc(C(=O)C(C)(C)C)c3n2)c1` [Example 136, 1-[2-(3-Ethoxy-phenyl)-5H-pyrrolo[2,3-b]pyrazin-7-yl]-2,2-dimethyl-propan-1-one] gave a melting point of 195 to 196 °C. Molecule `CC(C)COc1cccc(-c2cnc3[nH]cc(C(=O)C(C)(C)C)c3n2)c1` [Example 137, 1-[2-(3-Isobutoxy-phenyl)-5H-pyrrolo[2,3-b]pyrazin-7-yl]-2,2-dimethyl-propan-1-one] yielded a melting point of 177 to 178 °C. As for `CC(C)Oc1cccc(-c2cnc3[nH]cc(C(=O)C(C)(C)C)c3n2)c1` [Example 138, 1-[2-(3-Isopropoxy-phenyl)-5H-pyrrolo[2,3-b]pyrazin-7-yl]-2,2-dimethyl-propan-1-one], the figure is 149 to 150 °C; as for `CCCOc1cccc(-c2cnc3[nH]cc(C(=O)C(C)(C)C)c3n2)c1` [Example 139, 2,2-Dimethyl-1-[2-(3-propoxy-phenyl)-5H-pyrrolo[2,3-b]pyrazin-7-yl]-propan-1-one], 179 to 180 °C.

As for `CC(C)(C)C(=O)c1c[nH]c2ncc(-c3ccc(S(N)(=O)=O)cc3)nc12` [Example 140, 4-[7-(2,2-Dimethyl-propionyl)-5H-pyrrolo[2,3-b]pyrazin-2-yl]-benzenesulfonamide], the melting point was in the range of 277 to 278 °C.

In turn, `CNS(=O)(=O)c1cccc(-c2cnc3[nH]cc(C(=O)C(C)(C)C)c3n2)c1` [Example 141, 3-[7-(2,2-Dimethyl-propionyl)-5H-pyrrolo[2,3-b]pyrazin-2-yl]-N-methyl-benzenesulfonamide] showed a melting point of 245 to 247 °C. The molecule `CNS(=O)(=O)c1ccc(-c2cnc3[nH]cc(C(=O)C(C)(C)C)c3n2)cc1` [Example 142, 4-[7-(2,2-Dimethyl-propionyl)-5H-pyrrolo[2,3-b]pyrazin-2-yl]-N-methyl-benzenesulfonamide] gave a melting point of 278 to 280 °C. Molecule `CC(C)(C)C(=O)c1c[nH]c2ncc(-c3cccc(CCCO)c3)nc12` [Example 143, 1-{2-[3-(3-Hydroxy-propyl)-phenyl]-5H-pyrrolo[2,3-b]pyrazin-7-yl}-2,2-dimethyl-propan-1-one] registered a melting point of 170 to 171 °C.

With `CC(C)(C)C(=O)c1c[nH]c2ncc(-c3cccc(S(N)(=O)=O)c3)nc12` [Example 144, 3-[7-(2,2-Dimethyl-propionyl)-5H-pyrrolo[2,3-b]pyrazin-2-yl]-benzenesulfonamide], the melting point lay in the range of 275 to 277 °C.

`COc1cc(OC)cc(-c2cnc3[nH]cc(C(=O)C(C)(C)C)c3n2)c1` [Example 146, 1-[2-(3,5-Dimethoxy-phenyl)-5H-pyrrolo[2,3-b]pyrazin-7-yl]-2,2-dimethyl-propan-1-one] had a melting point of 206.9 to 207.7 °C. As to `COc1cc(-c2cnc3[nH]cc(C(=O)C4(C)CCCC4)c3n2)cc(OC)c1OC` [Example 147, (1-Methyl-cyclopentyl)-[2-(3,4,5-trimethoxy-phenyl)-5H-pyrrolo[2,3-b]pyrazin-7-yl]-methanone], the melting point lay in the range of 244 to 246 °C.

The molecule `CC(C)(C)C(=O)c1c[nH]c2ncc(-c3cccc(CCO)c3)nc12` [Example 148, 1-{2-[3-(2-Hydroxy-ethyl)-phenyl]-5H-pyrrolo[2,3-b]pyrazin-7-yl}-2,2-dimethyl-propan-1-one] had a melting point of 202 to 203 °C. With `CC(C)(C)C(=O)c1c[nH]c2ncc(-c3cccc(CN)c3)nc12` [Example 149, 1-[2-(3-Aminomethyl-phenyl)-5H-pyrrolo[2,3-b]pyrazin-7-yl]-2,2-dimethyl-propan-1-one], the melting point was 176 to 178 °C. The same measure for `CC(C)(C)C(=O)c1c[nH]c2ncc(-c3cccc(CN4CCCCC4)c3)nc12` [Example 150, 2,2-Dimethyl-1-[2-(3-piperidin-1-ylmethyl-phenyl)-5H-pyrrolo[2,3-b]pyrazin-7-yl]-propan-1-one]: 176 to 177 °C. Molecule `CC(C)(C)C(=O)c1c[nH]c2ncc(-c3ccccc3O)nc12` [Example 152, 1-[2-(2-Hydroxy-phenyl)-5H-pyrrolo[2,3-b]pyrazin-7-yl]-2,2-dimethyl-propan-1-one] came in with a melting point of 282 to 283 °C.

For `CC1(C(=O)c2c[nH]c3ncc(-c4cccc(N5CCOCC5)c4)nc23)CCCCC1` [Example 153, (1-Methyl-cyclohexyl)-[2-(3-morpholin-4-yl-phenyl)-5H-pyrrolo[2,3-b]pyrazin-7-yl]-methanone], the melting point was in the range of 208 to 209 °C. In the case of `Cc1nnc(-c2cccc(-c3cnc4[nH]cc(C(=O)C5(C)CCCCC5)c4n3)c2)o1` [Example 155, (1-Methyl-cyclohexyl)-{2-[3-(5-methyl-[1,3,4]oxadiazol-2-yl)-phenyl]-5H-pyrrolo[2,3-b]pyrazin-7-yl}-methanone], the melting point was in the range of 234 to 236 °C. `CC1(C(=O)c2c[nH]c3ncc(-c4cccc(CCCO)c4)nc23)CCCCC1` [Example 156, {2-[3-(3-Hydroxy-propyl)-phenyl]-5H-pyrrolo[2,3-b]pyrazin-7-yl}-(1-methyl-cyclohexyl)-methanone] yielded a melting point of 80 to 83 °C.

In turn, `COc1cccc(-c2cnc3[nH]cc(C(=O)C4(C)CCCCC4)c3n2)c1` [Example 157, [2-(3-Methoxy-phenyl)-5H-pyrrolo[2,3-b]pyrazin-7-yl]-(1-methyl-cyclohexyl)-methanone] displayed a melting point of 173 to 175 °C. As to `CN(C)c1ccc(-c2cnc3[nH]cc(C(=O)C4(C)CCCCC4)c3n2)cc1` [Example 158, [2-(4-Dimethylamino-phenyl)-5H-pyrrolo[2,3-b]pyrazin-7-yl]-(1-methyl-cyclohexyl)-methanone], the melting point was 272 to 274 °C. Molecule `CC1(C(=O)c2c[nH]c3ncc(-c4cccc(N5CCCC5)c4)nc23)CCCCCC1` [Example 160, (1-Methyl-cycloheptyl)-[2-(3-pyrrolidin-1-yl-phenyl)-5H-pyrrolo[2,3-b]pyrazin-7-yl]-methanone] returned a melting point of 192 to 193 °C. Molecule `O=C(c1c[nH]c2ncc(Br)nc12)C12CC3CC(CC(C3)C1)C2` [Example 161, Adamantan-1-yl-(2-bromo-5H-pyrrolo[2,3-b]pyrazin-7-yl)-methanone] registered a melting point of 279 to 280 °C. The molecule `COc1cc(-c2cnc3[nH]cc(C(=O)C45CC6CC(CC(C6)C4)C5)c3n2)cc(OC)c1OC` [Example 162, Adamantan-1-yl-[2-(3,4,5-trimethoxy-phenyl)-5H-pyrrolo[2,3-b]pyrazin-7-yl]-methanone] displayed a melting point of 267 to 268 °C. With `COc1cc(-c2cnc3[nH]cc(C(=O)C(C)(C)CO)c3n2)cc(OC)c1OC` [Example 165, 3-hydroxy-2,2-dimethyl-1-[2-(3,4,5-trimethoxy-phenyl)-5H-pyrrolo[2,3-b]pyrazin-7-yl]-propan-1-one], the melting point was 227 to 229 °C.
